For assay [1], the target named is T1, MCT4 (Homo sapiens, UniProt O15427).
T1 sequence (O15427 1-465): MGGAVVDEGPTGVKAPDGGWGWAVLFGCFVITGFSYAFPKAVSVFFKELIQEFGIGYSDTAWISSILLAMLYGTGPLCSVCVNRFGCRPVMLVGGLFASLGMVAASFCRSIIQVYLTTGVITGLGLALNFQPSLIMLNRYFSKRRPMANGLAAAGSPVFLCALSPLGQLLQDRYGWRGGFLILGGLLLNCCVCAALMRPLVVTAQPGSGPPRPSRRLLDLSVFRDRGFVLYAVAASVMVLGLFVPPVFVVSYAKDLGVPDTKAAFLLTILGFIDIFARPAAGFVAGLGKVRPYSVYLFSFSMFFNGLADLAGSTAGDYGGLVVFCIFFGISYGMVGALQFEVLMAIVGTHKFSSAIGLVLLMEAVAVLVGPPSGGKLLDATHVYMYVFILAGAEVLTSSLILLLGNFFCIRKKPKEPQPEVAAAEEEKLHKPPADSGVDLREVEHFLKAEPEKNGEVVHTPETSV
Briefly: Assay (a): lactate efflux from SK-Br-3 cells (lactate in media, 4 h). The assay is classed as cell-based. Details: a natively glycolytic human breast adenocarcinoma line predominantly expressing MCT4; host or cells: SK-Br-3. Particulars: mean of at least three repeats (Example 32, marked *, two repeats), read-out: MCT4 lactate efflux pIC50 (SKBR3) (converted). As for the experimental part: Assay plates were lidded and incubated for 4 hours at 37° C. and 5% CO2.

Assay [2] has as its target T1, MCT4. Briefly: cell-based.
Procedure: (§1) Cells were loaded with the pH sensitive dye BCECFAM(Invitrogen #B11150) before being washed to remove excess dye and seeded into the assay plates—directly onto the test compound—at a density of 15,000 cells/well (NCI—H358) or 30,000 cells/well (K562), in 30 μl HBSS with 1 mM [final] […] Assay plates were lidded and spun in a plate centrifuge at 170 g for 1 minute. Plates were then wrapped in foil and incubated in the dark for 1 hour at room temperature.
(§2) Following incubation with test compound, 10 μl of 25 mM Sodium-L-Lactate (Sigma #L7022) made up in HBSS with 1 mM [final] […] This addition was performed directly on the FLIPR Tetra platform (Molecular Devices) as part of a real-time kinetic read protocol. […] A percentage change from base-line was calculated for each test well and values normalised to control wells—treated with either DMSO (maximum assay signal) or chemistry related to that described in this patent (minimum assay signal)—before fitting concentration response curves to determine an IC50 value.
The next assay concerns the target T2, MCT1 (Homo sapiens, UniProt P53985).
T2 construct: a human erythroleukemia line predominantly expressing MCT1, a small amount of MCT2 and no MCT4; host or cells: K562
T2 sequence (P53985 1-500): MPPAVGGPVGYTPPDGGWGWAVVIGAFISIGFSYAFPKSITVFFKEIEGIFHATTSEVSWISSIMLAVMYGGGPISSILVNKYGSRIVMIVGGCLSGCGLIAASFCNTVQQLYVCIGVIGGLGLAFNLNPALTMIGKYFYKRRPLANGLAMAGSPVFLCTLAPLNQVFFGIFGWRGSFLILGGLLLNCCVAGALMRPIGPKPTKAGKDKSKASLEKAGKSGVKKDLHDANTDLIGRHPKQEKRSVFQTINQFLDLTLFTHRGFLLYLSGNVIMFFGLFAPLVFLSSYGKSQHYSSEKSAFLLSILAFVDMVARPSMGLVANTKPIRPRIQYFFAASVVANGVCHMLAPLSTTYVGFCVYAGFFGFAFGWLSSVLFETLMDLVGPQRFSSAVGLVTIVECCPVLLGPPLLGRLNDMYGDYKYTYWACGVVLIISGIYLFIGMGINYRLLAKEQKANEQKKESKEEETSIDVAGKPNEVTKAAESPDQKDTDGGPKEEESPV
Briefly: Assay (c): FLIPR BCECF lactate influx in K562 cells. The assay is classed as cell-based. As to conditions: mean of at least three repeats, read-out: MCT1 FLIPR pIC50 (K562) (converted).

Procedure for MCT1: as §1, §2

With `Cc1nc2nc(C)c(C[C@@H]3CCN(c4ccc(-c5ccc(CN6CCOCC6)nn5)nc4)C3)c(C)n2n1` [Example 9, (R)-4-((6-(5-(3-((2,5,7-trimethyl-[1,2,4]triazolo[1,5-a]pyrimidin-6-yl)methyl)pyrrolidin-1-yl)pyridin-2-yl)pyridazin-3-yl)methyl)morpholine], the IC50 at MCT4 [1] is 0.501 nM; against MCT4 [2] it was 15.8 nM; on MCT1 it was above 20000 nM.

As to `Cc1nc2nc(C)c(C[C@@H]3CCN(c4ccc(-c5ccc(CN6CCOCC6)nn5)cc4)C3)c(C)n2n1` [Example 29, (R)-4-((6-(4-(3-((2,5,7-trimethyl-[1,2,4]triazolo[1,5-a]pyrimidin-6-yl)methyl)pyrrolidin-1-yl)phenyl)pyridazin-3-yl)methyl)morpholine], on MCT1, the IC50 is above 15800 nM.

In the case of `Cc1nc2nc(C)c(C[C@@H]3CCN(c4cnc(-c5ccc(CN6CCN(C)C[C@H]6C)cc5)cn4)C3)c(C)n2n1` [Example 34, 6-(((R)-1-(5-(4-(((R)-2,4-dimethylpiperazin-1-yl)methyl)phenyl)pyrazin-2-yl)pyrrolidin-3-yl)methyl)-2,5,7-trimethyl-[1,2,4]triazolo[1,5-a]pyrimidine], the IC50 is 1.58 nM on MCT4 [1], 63.1 nM against MCT4 [2] and above 25100 nM on MCT1.

`Cc1nc2nc(C)c(C[C@@H]3CCN(c4cnc(-c5ccc(CN6C[C@@H](C)N(C)C[C@H]6C)cc5)cn4)C3)c(C)n2n1` [Example 35, 2,5,7-trimethyl-6-(((R)-1-(5-(4-(((2R,5R)-2,4,5-trimethylpiperazin-1-yl)methyl)phenyl)pyrazin-2-yl)pyrrolidin-3-yl)methyl)-[1,2,4]triazolo[1,5-a]pyrimidine]: the IC50 at MCT4 [1] was 0.631 nM; against MCT4 [2], 15.8 nM; at MCT1, above 25100 nM.

Turning to `Cc1nc2nc(C)c(C[C@@H]3CCN(c4cnc(-c5ccc(CN6C[C@@H](C)N(C)C[C@@H]6C)cc5)cn4)C3)c(C)n2n1` [Example 36, 2,5,7-trimethyl-6-(((R)-1-(5-(4-(((2S,5R)-2,4,5-trimethylpiperazin-1-yl)methyl)phenyl)pyrazin-2-yl)pyrrolidin-3-yl)methyl)-[1,2,4]triazolo[1,5-a]pyrimidine], the IC50 is 0.501 nM on MCT4 [1] and above 25100 nM on MCT1.

As for `Cc1nc2nc(C)c(C[C@@H]3CCN(c4cnc(-c5ccc(CN6CCN(CCO)CC6)cc5)cn4)C3)c(C)n2n1` [Example 41, 2-{4-[4-(5-{(3R)-3-[(2,5,7-trimethyl[1,2,4]triazolo[1,5-a]pyrimidin-6-yl)methyl]pyrrolidin-1-yl}pyrazin-2-yl)benzyl]piperazin-1-yl}ethanol], the IC50 at MCT4 [1] is 0.794 nM; on MCT1, above 25100 nM.

For `Cc1nc2nc(C)c(C[C@@H]3CCN(c4cnc(-c5ccc(CN6CCN(C)C[C@@H]6C)cc5)cn4)C3)c(C)n2n1` [Example 50, 6-(((R)-1-(5-(4-(((S)-2,4-dimethylpiperazin-1-yl)methyl)phenyl)pyrazin-2-yl)pyrrolidin-3-yl)methyl)-2,5,7-trimethyl-[1,2,4]triazolo[1,5-a]pyrimidine], the values for the IC50 at MCT4 [1], against MCT4 [2] and on MCT1 were 0.501 nM, 15.8 nM and above 25100 nM, respectively.

On to `Cc1nc2nc(C)c(C[C@@H]3CCN(c4cnc(-c5ccc(CN6CCN(C)CC6)nc5)cn4)C3)c(C)n2n1` [Example 57, (R)-2,5,7-trimethyl-6-((1-(5-(6-((4-methylpiperazin-1-yl)methyl)pyridin-3-yl)pyrazin-2-yl)pyrrolidin-3-yl)methyl)-[1,2,4]triazolo[1,5-a]pyrimidine], for which the IC50 on MCT4 [1] is 3.98 nM; against MCT4 [2], 126 nM.

Take `CC(=O)N1CCN(Cc2ccc(-c3cnc(N4CC[C@@H](Cc5c(C)nc6nc(C)nn6c5C)C4)cn3)cc2)CC1` [Example 58, (R)-1-(4-(4-(5-(3-((2,5,7-trimethyl-[1,2,4]triazolo[1,5-a]pyrimidin-6-yl)methyl)pyrrolidin-1-yl)pyrazin-2-yl)benzyl)piperazin-1-yl)ethanone]: the results for the IC50 on MCT4 [1], against MCT4 [2] and at MCT1 were 0.631 nM, 12.6 nM and above 25100 nM, respectively.

For the compound `Cc1nc2nc(C)c(C[C@@H]3CCN(c4cnc(-c5ccc(CN6CCN(C)CC6)cc5)cn4)C3)c(C)n2n1` [Example 59, (R)-2,5,7-trimethyl-6-((1-(5-(4-((4-methylpiperazin-1-yl)methyl)phenyl)pyrazin-2-yl)pyrrolidin-3-yl)methyl)-[1,2,4]triazolo[1,5-a]pyrimidine], the IC50 on MCT1 was above 25100 nM.

For `Cc1nc2nc(C)c(C[C@@H]3CCN(c4ccc(-c5ccc(CN6CCOCC6)cc5)nn4)C3)c(C)n2n1` [Example 61, (R)-4-(4-(6-(3-((2,5,7-trimethyl-[1,2,4]triazolo[1,5-a]pyrimidin-6-yl)methyl)pyrrolidin-1-yl)pyridazin-3-yl)benzyl)morpholine], the figures for the IC50 on MCT4 [1] and on MCT4 [2] were 1 nM and 6.31 nM, respectively.

As to `Cc1nc2nc(C)c(O[C@@H]3CCN(c4ccc(-c5ccc(CN6CCN(C)CC6)nn5)cc4)C3)c(C)n2n1` [Example 65, (R)-2,5,7-trimethyl-6-((1-(4-(6-((4-methylpiperazin-1-yl)methyl)pyridazin-3-yl)phenyl)pyrrolidin-3-yl)oxy)-[1,2,4]triazolo[1,5-a]pyrimidine], the IC50 on MCT1 is above 25100 nM.

Consider `CC(=O)N1CCN(Cc2ccc(-c3ccc(N4CC[C@@H](Oc5c(C)nc6nc(C)nn6c5C)C4)cc3)nn2)CC1` [Example 71, (R)-1-(4-((6-(4-(3-((2,5,7-trimethyl-[1,2,4]triazolo[1,5-a]pyrimidin-6-yl)oxy)pyrrolidin-1-yl)phenyl)pyridazin-3-yl)methyl)piperazin-1-yl)ethan-1-one], for which the IC50 on MCT1 was above 25100 nM.

Take `Cc1nc2nc(C)c(O[C@@H]3CCN(c4cnc(-c5ccc(CN6CCN(C)CC6)cc5)nc4)C3)c(C)n2n1` [Example 76, (R)-2,5,7-trimethyl-6-((1-(2-(4-((4-methylpiperazin-1-yl)methyl)phenyl)pyrimidin-5-yl)pyrrolidin-3-yl)oxy)-[1,2,4]triazolo[1,5-a]pyrimidine]: the figures for the IC50 on MCT4 [1] and at MCT1 were 2 nM and above 25100 nM, respectively.

As for `Cc1nc2nc(C)c(O[C@@H]3CCN(c4cnc(-c5ccc(CN6CCN(C)CC6)cc5)cn4)C3)c(C)n2n1` [Example 77, (R)-2,5,7-trimethyl-6-((1-(5-(4-((4-methylpiperazin-1-yl)methyl)phenyl)pyrazin-2-yl)pyrrolidin-3-yl)oxy)-[1,2,4]triazolo[1,5-a]pyrimidine], the IC50 was 3.98 nM at MCT4 [1] and 15.8 nM at MCT4 [2].

For `Cc1nc2nc(C)c(O[C@@H]3CCN(c4cnc(-c5ccc(CN6CCOCC6)cc5)cn4)C3)c(C)n2n1` [Example 78, (R)-4-(4-(5-(3-((2,5,7-trimethyl-[1,2,4]triazolo[1,5-a]pyrimidin-6-yl)oxy)pyrrolidin-1-yl)pyrazin-2-yl)benzyl)morpholine], the IC50 at MCT4 [1] was 2.51 nM; on MCT4 [2], 6.31 nM.

For `Cc1nc2nc(C)c(C[C@@H]3CCN(c4cnc(-c5ccc(CN6CCCC6)nc5)cn4)C3)c(C)n2n1` [Example 82, (R)-2,5,7-trimethyl-6-((1-(5-(6-(pyrrolidin-1-ylmethyl)pyridin-3-yl)pyrazin-2-yl)pyrrolidin-3-yl)methyl)-[1,2,4]triazolo[1,5-a]pyrimidine], the IC50 is 2.51 nM at MCT4 [1] and 12.6 nM against MCT4 [2].

For the origin of these results see US12503473B2, “Triazolopyrimidine compounds and their use in treating cancer” (Dizal (Jiangsu) Pharmaceutical Co., Ltd., priority 2018, dated 2025).
